Test results from PubChem BioAssay (NCI).
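Assay format: 96-well plates, 48-hour exposure. At the GI50, growth is halved. At the TGI there is no net growth.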

Key:
Assay in all cases: inhibition of tumour cell growth, NCI panel, 48 h
ACHN renal = test system: ACHN renal
HS 578T breast = test system: HS 578T breast
KM12 colon = test system: KM12 colon
NCI-H226 lung = test system: NCI-H226 lung
OVCAR-4 ovarian = test system: OVCAR-4 ovarian
PC-3 prostate = test system: PC-3 prostate
RXF 393 renal = test system: RXF 393 renal
SK-MEL-2 melanoma = test system: SK-MEL-2 melanoma
SR leukemia = test system: SR leukemia
UO-31 renal = test system: UO-31 renal

Structure (SMILES) | GI50 (ACHN renal) | TGI (ACHN renal) | GI50 (HS 578T breast) | TGI (HS 578T breast) | GI50 (KM12 colon) | TGI (KM12 colon) | GI50 (NCI-H226 lung) | TGI (NCI-H226 lung) | GI50 (OVCAR-4 ovarian) | TGI (OVCAR-4 ovarian) | GI50 (PC-3 prostate) | TGI (PC-3 prostate) | GI50 (RXF 393 renal) | TGI (RXF 393 renal) | GI50 (SK-MEL-2 melanoma) | TGI (SK-MEL-2 melanoma) | GI50 (SR leukemia) | TGI (SR leukemia) | GI50 (UO-31 renal) | TGI (UO-31 renal)
CCCN1C(=O)N(CCC)C2C1NC(=S)N2/N=C/C=C/c1ccccc1OC (stereo not given) | 0.631 µM | 81.1 µM | 0.478 µM | > 100 µM | 0.422 µM | > 100 µM | 4.17 µM | > 43.9 µM | 1.95 µM | > 100 µM | 0.424 µM | > 100 µM | 0.484 µM | 85.9 µM | 2.08 µM | > 63.4 µM | 0.326 µM | > 35.1 µM | 1.26 µM | > 100 µM
CN1C(=O)N(C)C2C1NN=c1s/c(=C\c3ccc(Cl)cc3Cl)c(=O)n12 (stereo not given) | 0.236 µM | > 100 µM | 0.173 µM | > 92.6 µM | 0.134 µM | > 75.4 µM | 0.623 µM | > 100 µM | 1.66 µM | > 78.9 µM | 0.167 µM | > 100 µM | 0.0862 µM | 0.925 µM | 11.7 µM | > 100 µM | 0.0557 µM | > 100 µM | 0.892 µM | > 71.8 µM
O=C1OCC2=C1C(c1cccc(Br)c1)c1cc3c(cc1N2CCO)CCC3 (stereo not given) | 0.0865 µM | 9.68 µM | 0.151 µM | 11.4 µM | 0.0329 µM | 1.04 µM | 0.116 µM | 0.761 µM | 0.168 µM | 16 µM | 0.0864 µM | 7.1 µM | 0.0263 µM | 1.61 µM | 0.231 µM | 8.32 µM | 0.185 µM | 22.2 µM | 0.0997 µM | 8.2 µM
COc1ccc2[nH]cc(C3(c4c[nH]c5ccc(OC)cc45)C(=O)Nc4ccc(F)cc43)c2c1 | 2.93 µM | 10.1 µM | 3.13 µM | 14.8 µM | 2.58 µM | 6.96 µM | 2.58 µM | 12 µM | 2.76 µM | 11.6 µM | 3.13 µM | 16.5 µM | 2.31 µM | 6.54 µM | 2.34 µM | 5.02 µM | 2.03 µM | 4.97 µM | 1.51 µM | 11.9 µM
CC[C@H]1[C@@H]2C=C[C@@H]3[C@H]4C/C=C\C(=O)NCCC[C@@H]5NC(=O)/C(=C(O)/C=C/[C@@H]4C[C@@H]3[C@H]2C[C@H]1C)C5=O | 0.42 µM | 1.57 µM | 1.44 µM | 3.81 µM | 3.03 µM | 9.88 µM | 0.738 µM | 2.56 µM | 0.664 µM | 2.16 µM | 0.865 µM | 2.3 µM | 0.236 µM | 0.84 µM | 2.54 µM | 6.01 µM | 0.264 µM | 1.94 µM | 0.546 µM | 1.91 µM
